Where two headings read alike, the source gives them in different places.
Molecular target: bovine cardiac myosin (Bos taurus (Bovine), UniProt Q9BE39)
Assay: Myosin inhibition assay (bcMF pCa 6 IC50)
Type: biochemical
Conditions: bovine cardiac myofibrils, calcium giving 50% activation
Method: Myosin inhibition assay (bcMF pCa 6IC50 (μM))
Small molecule agents were assessed for their ability to inhibit the enzymatic activity of bovine cardiac myosin using a biochemical assay that couples the release of ADP (adenosine diphosphate) from cardiac myosin to an enzymatic coupling system consisting of pyruvate kinase and lactate dehydrogenase (PK/LDH) and monitoring the absorbance decrease of NADH (at 340 nm) as a function of time. PK converts ADP to ATP (adenosine triphosphate) by converting PEP (phosphoenolpyruvate) to pyruvate. Pyruvate is then converted to lactate by LDH by converting NADH (nicotinamide adenine dinucleotide) to NAD (oxidized nicotinamide adenine dinucleotide). The source of cardiac myosin was from bovine heart in the form of skinned myofibrils. Prior to testing small molecule agents, the bovine myofibrils were assessed for their calcium responsiveness and the calcium concentration that achieves a 50% activation of the myofibril system was chosen as the final condition for assessing the inhibitory activity of the small molecule agents. All enzymatic activity was measured in a buffered solution containing 12 mM PIPES (piperazine-N,N′-bis(2-ethanesulfonic acid), 2 mM magnesium chloride at pH 6.8 (PM12 buffer). Final assay conditions were 1 mg/mL of bovine cardiac myofibrils, 0.4 mM PK/LDH, 50 uM ATP, 0.1 mg/mL BSA (bovine serum albumin), 10 ppm antifoam, 2 mM BME, 0.5 mM NADH, and 1.5 mM PEP at the desired free calcium concentration required to achieve 50% activation of the myofibrils.
A dilution series of compound was created in DMSO such that the final desired concentration of compound would be achieved in a volume of 30 μL with a fixed DMSO concentration of 3.3% (v/v). Typically 1 μL of the dilution series were added to 384 well plate to achieve a 10 point dose response. Following the addition of 14 μL of a solution containing bovine cardiac myofibrils, PK/LDH and a solution of calcium (that achieved 50% activation), the enzymatic reaction was started with the addition of 15 μL of a solution containing ATP, PEP and NADH. The reaction progress was followed in a PerkinElmer Envision plate reader at ambient temperature using clear bottom plates. The plate reader was configured to read absorbance at 340 nm in kinetics mode for 15 minutes. Data were recorded as the slope of the absorbance response to time. The slopes of the absorbance response as a function of time were normalized to slopes on the plate containing DMSO. This normalized rate was then plotted as a function of small molecule concentration and the data was fitted to a four-parameter fit using EXCEL XLfit. The IC50 is the concentration at which fifty percent of the total response is inhibited.

bovine cardiac myosin, sequence (Q9BE39 whole entry): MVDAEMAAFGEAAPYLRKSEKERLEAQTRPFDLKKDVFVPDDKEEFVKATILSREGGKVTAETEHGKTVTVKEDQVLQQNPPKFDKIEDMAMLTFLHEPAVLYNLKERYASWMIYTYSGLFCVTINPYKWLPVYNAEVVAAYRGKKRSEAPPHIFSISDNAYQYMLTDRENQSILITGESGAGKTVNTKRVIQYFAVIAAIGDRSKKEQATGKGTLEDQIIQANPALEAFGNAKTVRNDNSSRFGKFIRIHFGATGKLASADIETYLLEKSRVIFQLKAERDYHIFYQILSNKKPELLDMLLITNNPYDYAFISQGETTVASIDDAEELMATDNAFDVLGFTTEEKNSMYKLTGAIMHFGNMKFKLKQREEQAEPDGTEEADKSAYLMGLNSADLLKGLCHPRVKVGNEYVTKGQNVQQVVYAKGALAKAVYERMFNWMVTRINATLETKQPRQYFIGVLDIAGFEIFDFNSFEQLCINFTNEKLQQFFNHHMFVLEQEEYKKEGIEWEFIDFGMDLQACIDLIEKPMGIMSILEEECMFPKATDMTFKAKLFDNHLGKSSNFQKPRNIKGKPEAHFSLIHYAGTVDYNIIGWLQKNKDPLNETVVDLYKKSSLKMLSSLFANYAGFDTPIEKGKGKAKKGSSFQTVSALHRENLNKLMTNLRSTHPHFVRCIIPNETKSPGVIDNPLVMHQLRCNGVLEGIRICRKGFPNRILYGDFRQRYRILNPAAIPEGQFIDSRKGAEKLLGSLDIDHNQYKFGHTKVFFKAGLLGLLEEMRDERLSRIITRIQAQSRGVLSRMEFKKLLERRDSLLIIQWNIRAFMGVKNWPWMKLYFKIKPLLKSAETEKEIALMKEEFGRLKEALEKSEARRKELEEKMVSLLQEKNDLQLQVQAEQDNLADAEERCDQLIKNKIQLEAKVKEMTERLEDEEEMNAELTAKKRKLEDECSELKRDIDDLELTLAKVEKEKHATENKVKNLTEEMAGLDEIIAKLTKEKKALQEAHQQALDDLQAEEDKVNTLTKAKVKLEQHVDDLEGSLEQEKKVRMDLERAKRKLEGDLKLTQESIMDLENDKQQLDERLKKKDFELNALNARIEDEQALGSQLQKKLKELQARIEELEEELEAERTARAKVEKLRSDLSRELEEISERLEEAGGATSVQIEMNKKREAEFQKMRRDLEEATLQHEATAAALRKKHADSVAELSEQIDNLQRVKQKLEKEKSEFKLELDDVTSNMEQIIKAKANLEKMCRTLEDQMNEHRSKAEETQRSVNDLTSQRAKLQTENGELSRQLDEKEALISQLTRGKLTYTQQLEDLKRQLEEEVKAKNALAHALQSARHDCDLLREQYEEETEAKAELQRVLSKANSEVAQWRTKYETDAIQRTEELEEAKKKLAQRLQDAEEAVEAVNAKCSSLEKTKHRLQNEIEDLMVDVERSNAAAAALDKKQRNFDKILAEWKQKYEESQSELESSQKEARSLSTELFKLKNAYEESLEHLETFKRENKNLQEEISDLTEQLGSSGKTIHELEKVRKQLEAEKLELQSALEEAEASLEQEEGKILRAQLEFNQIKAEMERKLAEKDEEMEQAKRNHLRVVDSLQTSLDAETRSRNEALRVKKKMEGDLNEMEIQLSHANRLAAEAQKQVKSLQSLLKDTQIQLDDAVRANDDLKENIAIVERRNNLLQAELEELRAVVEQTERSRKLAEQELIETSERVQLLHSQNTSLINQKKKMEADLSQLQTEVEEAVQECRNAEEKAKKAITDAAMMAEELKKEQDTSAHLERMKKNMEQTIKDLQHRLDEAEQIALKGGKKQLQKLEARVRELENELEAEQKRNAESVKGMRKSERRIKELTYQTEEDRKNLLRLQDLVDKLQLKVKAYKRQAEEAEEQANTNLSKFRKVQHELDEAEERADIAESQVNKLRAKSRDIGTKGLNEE
bovine cardiac myosin, sequence (P85100 whole entry partner): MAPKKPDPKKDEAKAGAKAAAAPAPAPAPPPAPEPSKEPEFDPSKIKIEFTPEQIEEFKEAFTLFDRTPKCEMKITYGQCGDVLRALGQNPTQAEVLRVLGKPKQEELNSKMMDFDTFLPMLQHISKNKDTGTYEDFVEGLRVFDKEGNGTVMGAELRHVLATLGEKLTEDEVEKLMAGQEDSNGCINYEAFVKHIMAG
bovine cardiac myosin, sequence (Q3SZE5 whole entry partner): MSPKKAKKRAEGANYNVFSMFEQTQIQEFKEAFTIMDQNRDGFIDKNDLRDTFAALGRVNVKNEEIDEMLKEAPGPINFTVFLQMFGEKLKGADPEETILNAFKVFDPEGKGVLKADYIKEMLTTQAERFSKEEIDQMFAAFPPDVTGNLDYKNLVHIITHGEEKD

SMILES	IC50 (read-out: bcMF pCa 6 IC50) [nM]	IC50 (read-out: bcMF pCa_6 IC50 MEAN) [nM]
Cc1ccc(F)c([C@@H]2Nc3[nH]c(=O)n(C4CCOCC4)c(=O)c3C[C@@H]2F)c1 [Compound 3, (6S,7S)-6-fluoro-7-(2-fluoro-5-methylphenyl)-3-(tetrahydro-2H-pyran-4-yl)-5,6,7,8-tetrahydropyrido[2,3-d]pyrimidine-2, 4 (1H, 3H)-dione]	1110	1110
O=c1[nH]c2c(c(=O)n1C1CCOCC1)CC(F)(F)[C@H](c1cccc(F)c1)N2 [Compound C-1, (S)-6,6-difluoro-7-(3-fluorophenyl)-3-(tetrahydro-2H-pyran-4-yl)-5,6,7,8-tetrahydropyrido[2,3-d]pyrimidine-2,4(1H,3H)-dione, reference compound]	1570	–

Reference: patent publication US20250282779A1, “SUBSTITUTED 5,6,7,8-TETRAHYDROPYRIDO[2,3-D]PYRIMIDINE-2,4-DIONES FOR TREATING CARDIAC DISEASES” (MYOKARDIA, INC., priority 2018, published 2025)
